Test results taken from PubChem BioAssay (NCI).
Where “and” joins values, the source holds several entries; their conditions need not be identical. Equal values may be shown once.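 Five compound concentrations were applied to cells in 96-well plates for 48 hours; endpoints were derived by simple linear interpolation of the resulting dose-response curve. At the GI50, growth is halved. TGI marks complete inhibition of growth.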

How the values were obtained:
Assay in all cases: growth of human tumour cells (NCI), 48 h
NCI-H23 lung = test system: NCI-H23 lung
OVCAR-5 ovarian = test system: OVCAR-5 ovarian
ACHN renal = test system: ACHN renal
COLO 205 colon = test system: COLO 205 colon
SK-MEL-2 melanoma = test system: SK-MEL-2 melanoma
CCRF-CEM leukemia = test system: CCRF-CEM leukemia
UACC-62 melanoma = test system: UACC-62 melanoma
BT-549 breast = test system: BT-549 breast
MDA-MB-435 = test system: MDA-MB-435
MDA-MB-231 breast = test system: MDA-MB-231 breast

| SMILES | TGI (NCI-H23 lung) | TGI (OVCAR-5 ovarian) | TGI (ACHN renal) | TGI (COLO 205 colon) | TGI (SK-MEL-2 melanoma) | TGI (CCRF-CEM leukemia) | TGI (UACC-62 melanoma) | GI50 (NCI-H23 lung) | TGI (BT-549 breast) | GI50 (COLO 205 colon) | GI50 (SK-MEL-2 melanoma) | TGI (MDA-MB-435) | GI50 (CCRF-CEM leukemia) | GI50 (UACC-62 melanoma) | TGI (MDA-MB-231 breast) | GI50 (OVCAR-5 ovarian) | GI50 (ACHN renal) | GI50 (BT-549 breast) | GI50 (MDA-MB-231 breast) | GI50 (MDA-MB-435) |
| --- | --- | --- | --- | --- | --- | --- | --- | --- | --- | --- | --- | --- | --- | --- | --- | --- | --- | --- | --- | --- |
| COC(=O)C#CCC1CCCC1C1SCCS1 (configuration not stated) | > 100 µM | > 100 µM | > 100 µM | > 100 µM | 74.6 µM | 72.3 µM | > 100 µM | – | – | – | – | – | – | – | – | – | – | – | – | – |
| O=C(COc1ccc(Cl)cc1)N1CCN(C(=O)COc2ccc(Cl)cc2)c2ccccc21 | > 100 µM | > 100 µM | > 100 µM | > 100 µM | > 100 µM | > 100 µM | – | – | – | – | – | – | – | – | – | – | – | – | – | – |
| COc1cccc2c1[C@H]1CO[C@H]3C4C[C@H](C(=O)O)C([C@@H](C2)N13)N4C (some centres not stated) | 5.47 µM and 1.63 µM | 4.94 µM and > 24.3 µM | – | 2.58 µM and 2.41 µM | 2.11 µM and 0.655 µM | – | – | 0.564 µM | 0.339 µM | 0.515 µM | 0.245 µM | 0.204 µM | 2.42 µM and 1.6 µM | 0.0475 µM | – | – | – | – | – | – |
| NCCC(=O)NC(Cc1cnc[nH]1)C(=O)O (configuration not stated) | > 100 µM | > 100 µM | > 100 µM | > 100 µM | > 100 µM | > 100 µM | – | – | – | – | – | > 100 µM | – | – | > 100 µM | – | – | – | – | – |
| O=C(NCC(=O)N1CCOC1=O)OCc1ccccc1 | > 100 µM | – | > 100 µM | > 100 µM | > 100 µM | > 100 µM | > 100 µM | – | – | – | – | – | – | – | – | – | – | – | – | – |
| CCCCCCCCCCCCCP(=O)(NCC(N)=O)OCC (configuration not stated) | 44 µM | 38.3 µM | 47.9 µM | 34 µM | 30.3 µM | 47.7 µM | 33 µM | – | – | – | – | – | – | – | – | – | – | – | – | – |
| COc1cc2c(cc1-c1coc3cc(OCC=C(C)C)ccc3c1=O)OCO2 | > 100 µM | > 100 µM | > 100 µM | > 100 µM | > 100 µM | – | > 100 µM | – | 48.4 µM | – | – | > 100 µM | – | – | 65.6 µM | – | – | – | – | – |
| O=C(O)[C@@H](NS(=O)(=O)c1ccc2ccccc2c1)c1ccccc1 | > 100 µM | > 100 µM | > 100 µM | > 100 µM | > 100 µM | > 100 µM | > 100 µM | – | – | – | – | – | – | – | – | – | – | – | – | – |
| O=C(CCc1nc(=S)[nH][nH]1)Nc1cccc(C(F)(F)F)c1 | > 100 µM | > 100 µM | > 100 µM | > 100 µM | > 100 µM | > 100 µM | > 100 µM | – | – | – | – | – | – | – | – | – | – | – | – | – |
| N.N.N.N.N.O=S(=O)([O-])C(F)(F)F.O=S(=O)([O-])C(F)(F)F.[Os+8] | 19.1 µM | 31.9 µM | > 100 µM | 25.4 µM | 24.7 µM | 40.6 µM | 28.2 µM | 5.07 µM | – | 10.9 µM | 11.7 µM | – | 6.89 µM | 12.1 µM | – | 15.4 µM | 19.8 µM | – | – | – |
| O=C(O)COc1ccc(C(=O)/C(SS/C(C(=O)c2ccc(OCC(=O)O)c(Cl)c2Cl)=C2\C=C(c3ccc(Br)cc3)SS2)=C2/C=C(c3ccc(Br)cc3)SS2)c(Cl)c1Cl | 21.3 µM | > 100 µM | 22 µM | 14.9 µM | 33.7 µM | 17 µM | 19.3 µM | – | 67.3 µM | – | – | > 100 µM | – | – | – | – | – | – | – | – |
| CC(=O)NNc1nc(C)c(C(=O)/C=C/c2ccc(/C=C/C(=O)c3sc(NNC(C)=O)nc3C)cc2)s1 | > 100 µM | > 100 µM | > 100 µM | > 100 µM | > 100 µM | > 100 µM | > 100 µM | – | – | – | – | – | – | – | – | – | – | – | – | – |
| Cc1ccc(Sc2oc(-c3ccc(C)cc3)nc2[P+](c2ccccc2)(c2ccccc2)c2ccccc2)cc1 | 1.02 µM | 1.59 µM | 1.16 µM | – | 2.63 µM | 1.64 µM | 1.5 µM | 0.298 µM | 1.37 µM | – | 1.12 µM | 1.2 µM | 0.31 µM | 0.398 µM | 1.03 µM | 0.416 µM | 0.311 µM | 0.365 µM | 0.28 µM | 0.336 µM |
| COC1(C)C(=O)N2C1N(C(=O)OCc1ccccc1)CC2(C)C (configuration not stated) | > 100 µM | – | > 100 µM | > 100 µM | > 100 µM | > 100 µM | > 100 µM | – | – | – | – | – | – | – | – | – | – | – | – | – |
| Cc1cc(C)nc(NS(=O)(=O)c2ccc(NC(=O)c3cccn4c(=O)c5ccccc5nc34)cc2)n1 | > 100 µM | > 100 µM | > 100 µM | > 100 µM | > 100 µM | > 100 µM | 51.9 µM | – | – | – | – | – | – | – | – | – | – | – | – | – |
| CCN(CC)C(=O)COc1cc2c(O)c3c(O)c(C)c4c(c13)C(=O)C(C)(OC=CC(OC)C(C)C(OC(C)=O)C(C)C(O)C(C)C(O)C(C)C=CC=C(C)C(=O)N2)O4 (configuration not stated) | > 100 µM | > 100 µM | > 100 µM | – | > 100 µM | > 100 µM | > 100 µM | – | > 100 µM | – | – | – | – | – | > 100 µM | – | – | – | – | – |
| CN1CCc2c1nc(-c1cccnc1)c1c2N(C)CC1 | > 100 µM | > 100 µM | > 100 µM | > 100 µM | > 100 µM | > 100 µM | > 100 µM | – | – | – | – | – | – | – | – | – | – | – | – | – |
| O=c1c(-c2ccccc2)coc2cc(OC/C(=N/O)c3ccc(F)cc3)ccc12 | 42.1 µM | 43.8 µM | 43.5 µM | 50.7 µM | – | > 100 µM | 31.8 µM | 19.3 µM | 41.8 µM | 18.9 µM | – | 97.7 µM | 26 µM | 15.8 µM | 43.4 µM | 18.1 µM | 22.4 µM | 20.3 µM | 19.6 µM | 20.9 µM |
| CCN(CC)CCCC(C)Nc1c(Sc2cnc3cc(Cl)ccc3c2NC(C)CCCN(CC)CC)cnc2cc(Cl)ccc12 (configuration not stated) | 9.25 µM | 3.34 µM | 3.82 µM | 2.88 µM | 3.3 µM | 5.21 µM | 3.13 µM | – | – | – | – | – | – | – | – | – | – | – | – | – |
| COCCOCOC(C)(C)[C@H](CCOC(C)=O)O[Si](c1ccccc1)(c1ccccc1)C(C)(C)C | 80 µM | > 100 µM | 51.1 µM | 13.7 µM | 59.2 µM | 23.7 µM | 55.3 µM | – | – | – | – | – | – | – | – | – | – | – | – | – |
| O=c1c(O)cccn1CCCN(CCCn1cccc(O)c1=O)CCn1cccc(O)c1=O | > 100 µM | > 100 µM | > 100 µM | > 100 µM | – | 3.79 µM | 76 µM | 21.1 µM | > 100 µM | 21.6 µM | – | > 100 µM | 0.386 µM | 2.14 µM | > 100 µM | > 100 µM | 7.15 µM | 10.5 µM | 8.28 µM | 3.46 µM |
| COc1cc(/C=C\c2ccncc2)cc(OC)c1OC | – | > 100 µM | > 100 µM | > 100 µM | – | > 100 µM | > 100 µM | – | – | – | – | – | – | – | – | – | – | – | – | – |
| N/C(=N\c1nc2ccccc2s1)NC(=NC1CCCCC1)NC1CCCCC1 | 3.38 µM | 3.07 µM | 2.96 µM | 3.6 µM | 3.47 µM | 9.28 µM | 3.01 µM | 1.75 µM | 3.22 µM | 1.7 µM | 1.78 µM | 2.8 µM | 2.46 µM | 1.61 µM | – | 1.62 µM | 1.6 µM | 1.65 µM | – | 1.44 µM |
